Experimental data taken from US12358901B2, “KV3 modulators” (priority 2018, dated 2025).

Assay: In vitro metabolic stability study in human hepatocytes
Format: in vitro ADME
Conditions: for In vitro CLint / Rate constant k: 0.5 uM, human cryopreserved hepatocytes, 37° C.; for Rate constant k: up to 180 min; for clearance in human hepatocytes (in words): compared to pyridine comparator compounds RE11 and RE13
Description: The objective of this study was to determine metabolic stability in mixed gender human cryopreserved hepatocytes. Testosterone and 7-Hydroxycoumarin were used as positive controls for Phase I and Phase II metabolism, respectively.
Incubation medium was prepared by combining William's medium E, HEPES buffer 1 M and L-glutamine 200 mM in the following proportions: 88%, 10% and 2%, respectively (440 mL, 50 mL and 10 mL, respectively). The medium obtained was bubbled with carbogen (5% CO2, 95% O2) for 30 minutes prior to use. Cryopreserved hepatocytes were thawed and suspended in incubation medium pre-warmed at 37° C. Cells were centrifuged, re-suspended in medium and counted by means of a haemocytometer (Burker's chamber). Cell viability was measured using the Trypan Blue exclusion test.
Test compounds were separately dissolved in DMF to obtain 50 mM stock solutions that were further diluted in water/acetonitrile 50/50 (v/v) to obtain the corresponding 50 uM working solutions. Testosterone and 7-Hydroxy-Coumarin were dissolved in DMF in order to obtain a 50 mM Testosterone solution and 5 mM 7-Hydroxy-Coumarin solution. These solutions were then diluted in the incubation medium in order to obtain a 1 mM Testosterone working solution and a 500 uM 7-Hydroxy-Coumarin working solution.
10 μL of each working solution, i.e. 50 uM test compound, 1 mM Testosterone and 500 uM of 7-Hydroxy-Coumarin were added to 990 μL of 0.5×10^6 cell suspensions in order to obtain the final concentrations of 0.5 uM, 10 uM and 5 uM, respectively. The concentration of the organic solvent in each incubation was constant and <1% (v/v).
Test compounds were separately incubated at 0.5 uM for 0, 5, 10, 15, 20, 30, 45, 60, 90, 120, 150 and 180 min (12 time points) with mixed gender human cryopreserved hepatocytes at 37° C. in a 24 well plate. At each time point a robotic handling processor aspirated 50 μL of incubation mixture from each well and dispensed it into a refrigerated 96 well plate, containing 100 μL of acetonitrile with the corresponding internal standard 150 ng/mL to stop the reaction. Then an aliquot of water (120 uL) was added to equilibrate the organic solvent content at 37%. Samples were centrifuged (ca. 3500 g for 10 minutes) prior to LC MS/MS analysis.
Metabolic stability was calculated from the peak area ratio of the remaining test compound with internal standard versus time.
The intrinsic clearance (CLint) was determined from the first order elimination constant k (min^−1) (obtained from GraphPad by plotting the natural logarithm of the peak area ratio of the remaining test item with internal standard versus time), using the actual volume of the incubation V (mL), the amount of hepatocytes in the incubation M (million cells) and the hepatocellularity number per g liver Hn (120 for human).
Values for CLint were expressed as mL/min/g liver.

Structure (SMILES)	In vitro CLint	Rate constant k	clearance in human hepatocytes (in words)
CC[C@H]1NC(=O)N(c2cnc(Oc3ccc(C)c4c3C3(CC3)CO4)cn2)C1=O [Example 9, (5R)-5-ethyl-3-[5-(7-methylspiro[2H-benzofuran-3,1′-cyclopropane]-4-yl)oxypyrazin-2-yl]imidazolidine-2,4-dione]	1.03 mL/min/g liver	0.004 min⁻¹	low clearance
CC[C@H]1NC(=O)N(c2cnc(Oc3cccc4c3C3(CC3)CO4)cn2)C1=O [Example 10, (5R)-5-ethyl-3-(5-spiro[2H-benzofuran-3,1′-cyclopropane]-4-yloxypyrazin-2-yl)imidazolidine-2,4-dione]	0.70 mL/min/g liver	0.003 min⁻¹	low clearance
Cc1ccc(Oc2ncc(N3C(=O)NC(C)(C)C3=O)cn2)c2c1OCC21CC1 [RE5, reference compound]	0.31 mL/min/g liver	0.002 min⁻¹	
CC[C@H]1NC(=O)N(c2ccc(Oc3ccc(C)c4c3C3(CC3)CO4)nc2)C1=O [RE11, reference compound]	3.58 mL/min/g liver	0.02 min⁻¹	
CC[C@H]1NC(=O)N(c2ccc(Oc3cccc4c3C3(CC3)CO4)nc2)C1=O [RE13, (5R)-5-ethyl-3-(6-spiro[2H-benzofuran-3,1′-cyclopropane]-4-yloxy-3-pyridyl)imidazolidine-2,4-dione, reference compound]	2.16 mL/min/g liver	0.009 min⁻¹	
